Measured values taken from ChEMBL document CHEMBL1201862, “PubChem BioAssay data set” (2004).
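Briefly, cells in 96-well plates were exposed to five compound concentrations for 48 h, and endpoints were estimated by linear interpolation. GI50 is the concentration that inhibits growth by half.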 Calls of active or inactive are those of the source. Rule as the data show it: active = GI50 up to about 1.1 µM and inactive = higher.

Key:
Assay in all cases: NCI anticancer screen, dose series, 48 h
[1] = test system: UO-31
[2] = test system: TK-10
[3] = test system: NCI-H460
[4] = test system: HOP-62
[5] = test system: SN12C
[6] = test system: NCI-H226
[7] = test system: SF-539
[8] = test system: A498
[9] = test system: RXF 393
[10] = test system: 786-0
[11] = test system: SF-268
[12] = test system: CCRF-CEM
[13] = test system: NCI-H522
[14] = test system: HOP-18
[15] = test system: SK-OV-3
[16] = test system: LOX IMVI
[17] = test system: NCI-H23
[18] = test system: XF498
[19] = test system: UACC-257
[20] = test system: HCC 2998
[21] = test system: HT-29
[22] = test system: OVCAR-8
[23] = test system: LXFL 529
[24] = test system: SK-MEL-5
[25] = test system: K562
[26] = test system: HL-60
[27] = test system: UACC-62
[28] = test system: OVCAR-4
[29] = test system: SK-MEL-2
[30] = test system: DMS-114
[31] = test system: COLO 205
[32] = test system: OVCAR-3
[33] = test system: Malme-3M
[34] = test system: SNB-19
[35] = test system: DLD-1
[36] = test system: M14
[37] = test system: KM-20L2
[38] = test system: EKVX
[39] = test system: SNB-75
[40] = test system: KM12
[41] = test system: OVCAR-5
[42] = test system: MOLT-4
[43] = test system: HCT-15
[44] = test system: ACHN
[45] = test system: A549
[46] = test system: RPMI-8226
[47] = test system: RXF 631
[48] = test system: SF-295
[49] = test system: CAKI-1
[50] = test system: SK-MEL-28
[51] = test system: SW-620
[52] = test system: M19-MEL
[53] = test system: IGROV-1
[54] = test system: MDA-N
[55] = test system: HOP-92
[56] = test system: MCF7
[57] = test system: SNB-78
[58] = test system: DU-145
[59] = test system: Hs-578T
[60] = test system: T47D
[61] = test system: PC-3
[62] = test system: NCI/ADR-RES
[63] = test system: MDA-MB-231
[64] = test system: BT-549
[65] = test system: MDA-MB-435

Measured: GI50

Cc1ccc(C2CC(c3ccc([N+](=O)[O-])cc3)=Nc3ccccc3S2)cc1 (centres undefined)
18 µM: [43]
inactive: [1] 18.9 µM | [2] 34.8 µM | [3] 36.9 µM | [4] 61.5 µM | [5] 25.5 µM | [6] 44.6 µM | [7] 26.2 µM | [8] 16.3 µM | [9] 12.1 µM | [10] 14.6 µM | [11] 24.4 µM | [12] 12.9 µM | [13] 20.1 µM | [14] 48.4 µM | [15] 89.9 µM | [16] 15.3 µM | [17] 19.5 µM | [18] 19 µM | [19] 28.6 µM | [20] 20.3 µM | [21] 26.6 µM | [22] 22.5 µM | [23] 12.1 µM | [24] 17.1 µM | [25] 13.4 µM | [26] 19.8 µM | [27] 32.8 µM | [28] 23.7 µM | [29] 30.3 µM | [30] 16.5 µM | [31] 41.8 µM | [32] 24.7 µM | [33] 50.8 µM | [34] 23 µM | [35] 25.5 µM | [36] 28.3 µM | [37] 34.3 µM | [38] 42.6 µM | [39] 21.4 µM | [40] 18.4 µM | [41] 44.5 µM | [42] 15.1 µM | [44] 27.6 µM | [45] 22.3 µM | [46] 15.6 µM | [47] 24.5 µM | [48] 27.4 µM | [49] 31 µM | [50] 29 µM | [51] 20 µM | [52] 18.6 µM | [53] 23.4 µM

CC(C)=CCC1=C(O)C(=O)c2ccccc2C1=O [LAPACHOL]
inactive: [6] 53.8 µM | [54] 17.4 µM | [8] 60.4 µM | [14] 15.2 µM | [55] 79.6 µM | [18] 42.4 µM | [56] 24.4 µM | [20] 86.3 µM | [57] > 100 µM | [24] 11.7 µM | [58] 36.9 µM | [28] 33.7 µM | [29] 35.5 µM | [30] 60.3 µM | [59] 34.8 µM | [38] 78.7 µM | [39] 57.1 µM | [41] > 100 µM | [60] 61.4 µM | [61] 2.92 µM | [62] 32.3 µM | [63] 8.53 µM | [64] 51.8 µM | [65] 18.5 µM | [47] 22.2 µM | [49] 55 µM
